Measured values as given in PubChem BioAssay (NCI).
Where “and” joins values, the source holds several entries; their conditions need not be identical. Equal values may be shown once.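 Each compound was tested at five concentrations against cells in 96-well plates for 48 hours. GI50: concentration for 50% inhibition of growth. Definition used: TGI = concentration required for complete inhibition of growth.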

Columns and labels:
Experiment in all cases: NCI tumour cell line growth inhibition, 48 h
A498 renal = test system: A498 renal
ACHN renal = test system: ACHN renal
CAKI-1 renal = test system: CAKI-1 renal
EKVX NSCLC = test system: EKVX NSCLC
HCT-15 colon = test system: HCT-15 colon
HT29 colon = test system: HT29 colon
MOLT-4 leukemia = test system: MOLT-4 leukemia
NCI-H23 lung = test system: NCI-H23 lung
SK-MEL-2 melanoma = test system: SK-MEL-2 melanoma
UO-31 renal = test system: UO-31 renal

| Structure (SMILES) | GI50 (A498 renal) | TGI (A498 renal) | GI50 (ACHN renal) | TGI (ACHN renal) | GI50 (CAKI-1 renal) | TGI (CAKI-1 renal) | GI50 (EKVX NSCLC) | TGI (EKVX NSCLC) | GI50 (HCT-15 colon) | TGI (HCT-15 colon) | GI50 (HT29 colon) | TGI (HT29 colon) | GI50 (MOLT-4 leukemia) | TGI (MOLT-4 leukemia) | GI50 (NCI-H23 lung) | TGI (NCI-H23 lung) | GI50 (SK-MEL-2 melanoma) | TGI (SK-MEL-2 melanoma) | GI50 (UO-31 renal) | TGI (UO-31 renal) |
| --- | --- | --- | --- | --- | --- | --- | --- | --- | --- | --- | --- | --- | --- | --- | --- | --- | --- | --- | --- | --- |
| C[C@]12CC[C@H]3[C@@H](CC=C4C[C@@H](O)CC[C@@]43C)[C@@H]1C/C(=C\c1cccc(OCCCn3ccnc3)c1)[C@@H]2O | 13.4 µM | 26.8 µM | 13.9 µM | 31.3 µM | 13.8 µM | 34.5 µM | 13.5 µM | 33.9 µM | 10.2 µM | 38.9 µM | 3.85 µM | 18.1 µM | 6.55 µM | 32.2 µM | 13 µM | 30.1 µM | 17.4 µM | 33.6 µM | 13 µM | 28.3 µM |
| Fc1ccc(Nc2ccc3cc(OCCCN4CCOCC4)ccc3n2)cc1F | 2.21 µM | 7.64 µM | 4.2 µM | 30.7 µM | 3.71 µM | 25.6 µM | 5.86 µM | > 100 µM | 2.55 µM | 10.4 µM | 2.06 µM | 5.47 µM | 3.45 µM | > 100 µM | 3.93 µM | > 100 µM | 4.84 µM | 33.5 µM | 2.24 µM | 6.84 µM |
| O=C(/C=C/C12c3ccccc3C(c3ccccc31)C1C(=O)NC(=O)C12)c1ccco1 (stereo not given) | 2.42 µM | 6.05 µM | 3.63 µM | 12.3 µM | 3.74 µM | 14 µM | 3.16 µM | 11 µM | 2.14 µM | 5.43 µM | 2.28 µM | 5.06 µM | 2.16 µM | 7.63 µM | 2.22 µM | 4.83 µM | 2.19 µM | 4.44 µM | 2.19 µM | 7.49 µM |
| O=C(CCc1ccc(O)c(O)c1)c1ccc(O)c(O)c1O |  | > 100 µM |  | 28.4 µM |  | 37.9 µM |  | 48.4 µM |  | 33 µM |  | 84 µM |  | 89.5 µM |  | 61.3 µM |  | > 100 µM |  | > 100 µM |
| Cc1ccc(NC(=O)/C(=N/NC(=O)CC#N)C2C(=O)N(c3ccccc3)N=C2N)cc1C (stereo not given) |  | > 100 µM |  | > 100 µM |  | > 100 µM |  | > 100 µM |  | > 100 µM |  | > 100 µM |  | > 100 µM |  | > 100 µM |  | > 100 µM |  | > 100 µM |
| CC1=Cc2cc3[n-]c(cc4nc(cc5[n-]c(cc1n2)c(C)c5CCC(=O)O)C(CCC(=O)O)=C4C)cc3C.[Cu+2] | > 1 µM and 16.2 µM | > 1 µM and 36.5 µM | > 1 µM and 38.8 µM | > 100 µM | > 1 µM and 23.2 µM | > 68.2 µM | > 66.4 µM | > 100 µM | > 1 µM and 52.7 µM | > 86.7 µM | > 100 µM | > 100 µM | > 1 µM and 46.3 µM | > 88.7 µM | > 1 µM and 24.9 µM | > 1 µM and 52.8 µM | > 1 µM and 10.9 µM | > 81.7 µM | > 1 µM and 38.3 µM | > 92.7 µM |
| CC1(C)OC(=O)C=C(O)O1.CC1(C)OC(=O)C=C(O)O1.CCO.Oc1ccc2c(c1)CCC2.[Ti] | > 100 µM | > 100 µM | > 100 µM | > 100 µM | > 100 µM | > 100 µM | > 100 µM | > 100 µM | > 100 µM | > 100 µM | > 100 µM | > 100 µM | > 100 µM | > 100 µM | > 100 µM | > 100 µM | > 100 µM | > 100 µM | > 100 µM | > 100 µM |
| CCOC(=O)c1ccc2[nH]c(Cc3[nH]c4ccc(C(=O)OCC)cc4c3C)c(C)c2c1 | 5.45 µM | 23.1 µM | 2.28 µM | 15.8 µM | 1.55 µM | 22.9 µM | 5.09 µM | 26.4 µM | 0.129 µM | 21.4 µM | 0.821 µM | 8.2 µM | 1.83 µM | 26.8 µM | 6.35 µM | 25.8 µM | 14.1 µM | 40.5 µM | 7.26 µM | 30.8 µM |
| N#Cc1c(SCc2ccccc2)nc2[nH]c(=S)[nH]c(=S)c2c1-c1ccco1 | 55.3 µM | > 100 µM | > 100 µM | > 100 µM | 42.9 µM | > 100 µM | 17 µM | > 100 µM | 27.6 µM | > 100 µM | > 100 µM | > 100 µM | 5.04 µM | > 100 µM | 28 µM | > 100 µM | > 100 µM | > 100 µM | 61.2 µM | > 100 µM |
| CC1(C)CC2=NOS3=C2C(=NO3)C1c1ccccn1 (stereo not given) |  | > 100 µM |  | > 100 µM |  | > 100 µM |  | > 100 µM |  | > 100 µM |  | > 100 µM |  | 95.6 µM |  | > 100 µM |  | > 100 µM |  | > 100 µM |
| Cc1cc(Nc2ncc(Cl)c(Nc3ccccc3S(=O)(=O)C(C)C)n2)c(OC(C)C)cc1C1CCNCC1 | 1.88 µM | 6.83 µM | 1.59 µM and 1.33 µM | 2.94 µM and 2.61 µM | 1.87 µM | 5.29 µM | 1.14 µM | 2.71 µM | 1.21 µM | 2.59 µM | 0.237 µM and 0.304 µM | 1.24 µM and 1.27 µM | 1.55 µM | 3.7 µM | 1.51 µM | 3.07 µM | 1.47 µM | 3.06 µM | 1.29 µM and 1.14 µM | 2.63 µM and 2.36 µM |
| Nc1nc(F)nc2c1ncn2C1OC(COP(=O)(O)O)C(O)C1O (stereo not given) |  | 694 µM |  | 247 µM |  | > 68.4 µM |  | 406 µM |  | 1080 µM |  | > 1250 µM |  | 224 µM |  | 243 µM |  | 151 µM |  | 76.4 µM |
| N#CC(c1ccc(Cl)cc1)c1cccc(Cl)n1 (stereo not given) |  | > 100 µM |  | > 100 µM |  | > 100 µM |  | > 100 µM |  |  |  | > 100 µM |  | > 100 µM |  | > 100 µM |  | > 100 µM |  | > 100 µM |
| Cc1nc(Nc2ccccc2)sc1C(=O)NNC(N)=O |  | > 100 µM |  | > 100 µM |  | > 100 µM |  | > 100 µM |  |  |  |  |  | > 100 µM |  | > 100 µM |  | > 100 µM |  | > 100 µM |
| COc1cc(/C=C/C(=O)CC(=O)/C=C/c2ccc(OC(=O)CCNC34CC5CC(CC(C5)C3)C4)c(OC)c2)ccc1OC(=O)CCNC12CC3CC(CC(C3)C1)C2 | 4.61 µM | 17.5 µM | 11 µM | 23.6 µM | 2.51 µM | 9.33 µM | 4.41 µM | 12.9 µM | 4.49 µM | 17.6 µM | 1.75 µM | 3.2 µM | 3.08 µM | 16.2 µM |  |  | 4.48 µM | 16.3 µM | 3.45 µM | 14.8 µM |
